Series [1] can be described thus: In vivo IV dosing in CrT KO mice: prodrug, d3-Cr and d3-Crn in brain (Table 5). The following applies: for AUClast prodrug in the brain: BQL prodrug = 41.2 ng/mL. Here is the method:
A creatine prodrug is administered as an intravenous bolus injection to groups of three to six adult male CD1 mice at an appropriate creatine prodrug dose equivalent per kg body weight. Animals are conscious at the time of the experiment. Blood samples (0.3 mL) are obtained via a jugular vein cannula at intervals over 8 hours following IV dosing. Blood is processed into plasma, then the plasmais immediately frozen at −80° C. until analyzed by LC-MS/MS. Samples may also be taken form the CSF or other appropriate biological fluid. Brains were collected and flash frozen immediately in liquid nitrogen. Brains were homogenized in 100 mM KPI buffer with a cocktail of anti-proteases on the same day as the sample preparation required for LC-MS/MS analysis.
Several prodrugs with either free COOH group and ester linkage and macrocycles were selected for IV dosing in animal study to assess PK and d3-Cr release in brain in vivo. Prodrugs were IV dosed in CrT KO mice at 10, 15, or 25 mg/kg in animal studies. Mouse brain homogenates (MBH) were prepared from brains collected from mice after dosing. Levels of prodrug, d3-Cr and d3-Crn were quantified in brain and expressed in brain concentration (for macrocycle prodrugs) or AUC (for linear prodrugs) over time. Very few prodrugs were detected in MBH.

The nature of series [2]: Liver microsome stability, mouse. Format: in vitro ADME. The following applies: liver microsomes, read-out: Microsome Stability Mouse t1/2. Here is the method:
(§1) The stabilities of creatine prodrugs can be evaluated in one or more in vitro systems using a variety of preparations following methods known in the art. Experimental conditions useful for the in vitro studies are described in Table 1. Prodrug is added to each preparation in triplicate. […]
(§2) Protocol for Microsomal Stability:
(§3) For reference compound, a 500 μM spiking solution was prepared: add 10 μL of 10 mM DMSO stock solution into 190 μL ACN. […] For test compound, a 5 mM spiking solution was prepared: add 10 μL of 10 mM DMSO stock solution into 10 μL ACN. […] NADPH stock solution (6 mM) was prepared by dissolving NADPH into buffer 0.1 M Potassium Phosphate buffer, 1.0 mM EDTA, pH 7.4. […] For 0-min, 135 μL of ACN containing IS was added to the wells of 0-min plate and then 15 μL of NADPH stock solution (6 mM) was added. 15 μL of NADPH stock solution (6 mM) was added to the samples designated as 0-, 5-, 10-, 20-, 30-min, 60-min; 15 μL of buffer 0.1 M Potassium Phosphate buffer, 1.0 mM EDTA, pH 7.4, was added to the samples designated as 60-min without NADPH. At 5-min, 10-min, 20-min, and 30-min, 60-min 135 μL of ACN containing IS was added to the wells of corresponding plates, respectively, to stop the reaction. […] 50 μL of the supernatant from each well was transferred into a 96-well sample plate containing 50 μL of ultra pure water (Millipore, ZMQS50FOI) and analyzed by LC/MS.
On the technique in general: Liver microsomes are a subcellular fraction often used to study metabolism.

Series [3] in a line: Plasma stability, human plasma. In kind it is in vitro ADME. The following applies: 37 °C, read-out: Plasma Stability Human t1/2. Here is the method:
as §1
(§4) Protocol for plasma stability for early screen macrocycles (Method A):
(§5) Frozen plasma was thawed by placing at 37° C. quickly and centrifuged at 3,000 rpm for 8 minutes to remove clots. Then the supernatant was pipetted and pooled as the plasma to be used in the experiment. The plasma was placed on ice until used. The test compounds and reference compounds spiking solution was prepared as a 2.5 mM test compounds spiking solution A: Add 20 μL of 10 mM test compounds stock solution to 60 μL DMSO. 0.1 mM Spiking solution B was prepared: Add 40 μL of spiking solution A to 960 μL of […] Sodium phosphate buffer with 0.5% BSA. […] For 0-min, 400 μL of ACN containing IS was added to the wells of 0-min plate and then 90 μL of plasma was added. […] 50 μL of the supernatant was transferred from each well into a 96-well sample plate containing 120 μL of ultra pure water (Millipore, ZMQS50F01) and analyzed by LC/MS.
(§6) Protocol for plasma stability (Method B):
(§7) The frozen plasma was thawed in a 37° C. water bath and then, if needed, adjusted to pH=7.4 then preheated in a 37° C. incubator. The test article was dissolved in 10% DMSO/water and spiked into plasma pre-plated into 96 well plates at a final concentration of 1 μM. Discrete incubations were performed at 37° C. and included 5 time points: t=0, 2, 5, 15, and 30 min. Samples were then crashed with 4× volume, ice cold 20% water/80% acetonitrile and spun at 4000 g for 10 mins. The supernatant was dried down and reconstituted with water and analyzed by LC-MS/MS. The half life in minute was calculated.

Series [4] is described as follows: Chemical stability in phosphate buffered saline (PBS). Format: physicochemical. The following applies: 50 μM prodrug. The gist of the method: (§8)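 Incubations used 50 μM compound at 37 °C in phosphate buffered saline, fasted simulated intestinal fluid without pancreatin, or fasted simulated gastric fluid without pepsin.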
Series [5] in a line: Plasma stability, mouse plasma. Format: in vitro ADME. The following applies: 37 °C, read-out: Plasma Stability Mouse t1/2. Here is the method: as §1, §4, §5, §6, §7
Series [6] in a line: Chemical stability in simulated gastric fluid (SGF) without pepsin. Format: physicochemical. The following applies: 50 μM prodrug. The gist of the method:
as §8

Series [7] can be described thus: Liver microsome stability, human. In kind it is in vitro ADME. The following applies: liver microsomes, read-out: Microsome Stability Human t1/2. As for the experimental part:
as §1, §2, §3

The nature of series [8]: Prodrug cleavage in human brain homogenates (HBH): d3-Cr release and d3-Crn cyclization. The following applies: 200 μM prodrug, 3 h, % of nominal input. In kind it is in vitro ADME. As for the experimental part: For assessment of the ability of prodrugs to release creatine, and to release creatine preferentially to unwanted cyclization to creatinine, d3-labeled (deuterium labeled methyl group) prodrugs are incubated with brain homogenates (e.g., mouse, human) specially prepared to preserve FAAH activity or with rFAAH for direct cleavage study. The use of d3-labelled prodrugs is essential in order to distinguish prodrug-derived creatine (d3-creatine) from high concentrations of endogenous (non-labeled) creatine. […] Prodrugs are tested at final concentrations of 20 μM and 200 μM. Approximately 3-4 mg of homogenate is used for each reaction. Co-factor (NADPH) is included at a final concentration of 1 mM. FAAH activity is confirmed by conversion of 7-amino-4-methyl Coumarin-Arachidonamide to 7-amino-4-methyl Coumarin by fluorescent assay. Negative controls include incubations without brain homogenate/rFAAH (but with NADPH) or 65° C. heat inactivated brain homogenate/rFAAH to assess non-enzymatic prodrug cleavage under the conditions of the assay and FAAH inhibitor […] at the concentration of 1 μM. Prodrug incubations are prepared by addition of 8 μL of prodrug stock solution (500 or 5000 μM in DMSO or DMSO/methanol) to assay buffered, followed by addition of brain homogenate/rFAAH. […] The samples are centrifuged at 15890×g for 10 minutes at 4° C., followed by transfer of the supernatants for storage at −20° C. pending LC-MS/MS analysis. Sample supernatants are analyzed by LC-MS/MS for determination of d3-prodrug, d3-creatine and d3-creatinine levels.
Deuterated creatine prodrugs were tested in 3 different in vitro assays to assess d3-creatine (d3-Cr) release and cyclization to form d3-creatinine (d3-Crn). These assays were 1) direct cleavage with recombinant human FAAH enzyme (rFAAH), 2) cleavage in mouse brain homogenates (MBH), and 3) human brain homogenates (HBH).
Creatine prodrug cleavage efficiency was determined by percentage of net d3-Cr release in μM (positive reaction subtracted from negative control of no brain homogenate/rFAAH or inactivated brain homogenate/rFAAH) over nominal input concentration of 200 μM prodrug at 3 h. Propensity for creatinine cyclization was determined by percentage of d3-Crn generated in μM in positive reaction over nominal input concentration of 200 μM prodrug at 3 h.

Series [9] deals with Phenocell CrT deficient neurons (iPSC-derived human neurons). Briefly: Creatine prodrug uptake and d3-creatine release in Phenocell CrT deficient neurons (Table 4B). In kind it is cell-based. The following applies: 2 hours. Here is the method: Human neurons were obtained by differentiation of iPSC-derived neural stem cells for 14 days. The iPSCs were obtained from Phenocell Corporation. Neurons were cultured and differentiated to Day 10 and then frozen in liquid nitrogen. Neurons were thawed and replated at 1×10^6 per well of viable cells on poly-ornithine/laminin coated plates in 2 ml medium per well. Differentiation in complete Neurol medium with 2 ng/ml FGF2 was carried out for 4 additional days with a complete medium change (90% of medium) on Day 12. Activin A (20 ng/ml final conc.) was spiked into the cultures on Day 11 and Day 13. […] In parallel, compounds were incubated in medium alone to assess chemical stability of parent prodrug and metabolites. At the end of the 2 hour incubation, supernatants were collected and frozen at −80 C. Neurons in 6 well plates were washed gently 3× with HBSS and frozen at −80° C. Cell lysates were obtained by addition of 130 μl/well 10 mM Tris pH 7.4 with complete Mini protease inhibitors and scraping of wells. Plates were kept on ice during processing. Lysates were homogenized by hand briefly with a green pestle in 1.5 ml centrifuge tubes and then vortexed at high speed for 5 seconds. Lysates were centrifuged at 13,000 g, 10 minutes, 4 C and supernatants (cytosol fraction) were transferred in a new tube. A crash solution constituted of 80% acetonitrile and 20% water with bucetin, d5-Cr (internal standard) was added at 4:1 volume to volume to 50 ul of all samples for a total volume of 250 μL. Then plate was spun at 4000 rpm, 10 minutes, […] Samples were transferred to a new plate and frozen at −80 C prior to analysis by LC-MS/MS (Table 4B).

The mark [10] stands for this setting: IV 10 mg/kg, CrT KO mouse brain.

Structures can show the parent of a compound that is named as a salt. Some results are limits rather than exact numbers.

As to `[2H]C([2H])([2H])N(CC(=O)OC(C)C)C(=N)NC(=O)CCCCCCCCCCCC` [Compound 10], in [1] (setting [10]), the “AUClast prodrug in the brain” value was “BQL”.

Take `[2H]C([2H])([2H])N(CC(=O)OC(C)C)C(=N)NC(=O)CCCCCCCCCC` [Compound 12]: in series [1] (setting [10]), the “AUClast prodrug in the brain” value was “BQL”.

Turning to `[2H]C([2H])([2H])N(CC(=O)[O-])C(=N)NC(=O)CCCCCC.[Na+]` [Compound 13], the half-life at 10 μM stood at 15.2 h in [2] (pH 7.4, Table 2A) and 10.8 h in [7] (pH 7.4, Table 2A). Further, the half-life in [3] (Table 2A) and in series [5] (Table 2A) was more than 3 h in each case. In series [4] (Table 2A), the “Chemical Stability PBS % T0 at 2 hours at 37 °C.” value (“Chemical Stability PBS % T0” for short) worked out at 97%. Further, in series [1] (CrT KO mice, IV dosing), the “crossing of BBB (in words)” value is “did not seem to cross BBB”. Further, the “AUClast d3-Cr in the brain” value in [1] (IV 10 mg/kg, CrT KO mouse brain, BQL d3-Cr = 13.7 ng/mL) is listed as “BQL”. In addition, the “AUClast d3-Crn in the brain” value in [1] (IV 10 mg/kg, CrT KO mouse brain, BQL d3-Crn = 1.5 ng/mL) was “BQL”. In addition, the “AUClast prodrug in the brain” value in series [1] (setting [10]) was “BQL”. Besides, the “Chemical Stability SGF, no enzyme % T0 at 2 hours at 37 °C.” value (from here on “Chemical Stability SGF, no enzyme % T0”) in [6] (Table 2A) was 94%.

Regarding `Cl.[2H]C([2H])([2H])N(CC(=O)OCC(C)(C)C)C(=N)NC(=O)CCCCCCCCCC` [Compound 39], the “Chemical Stability PBS % T0” value in [4] (Table 2A) is listed as 62%. Moreover, the “Chemical Stability SGF, no enzyme % T0” value in series [6] (Table 2A) is reported as 103%. Also, the “Prodrug Cleavage Human BH d3-Crn release” value in series [8] turned out to be 166.5%. Moreover, in [8] (negative control subtracted), the “Prodrug Cleavage Human BH net d3-Cr release” value amounted to 6.4%.

In the case of `[2H]C([2H])([2H])N(CC(=O)O)C(=N)NC(=O)CCCCCCCCCCO` [Compound 54], the half-life at 10 μM in series [2] (pH 7.4, Table 2B) was more than 1.5 h; in series [7] (pH 7.4, Table 2B), more than 1.5 h. Moreover, the half-life in series [3] (Table 2B) and in series [5] (Table 2B) was more than 3 h in each case. Besides, the “Prodrug concentration in the cell cytosol” value (“Prodrug concentration” for short) is on record as “BLOQ” in [9] (Study No. 1, 10 μM) and “BLOQ” in series [9] (Study No. 1, 50 μM). Further, the “d3-Creatine concentration in the cell cytosol” value in series [9] (Study No. 1, 10 μM) is “BLOQ”; in series [9] (Study No. 1, 50 μM) it was “BLOQ”. For the same molecule, the “d3-Creatinine concentration in the cell cytosol” value in series [9] (Study No. 1, 10 μM) is recorded as “BLOQ”; in [9] (Study No. 1, 50 μM) it was “BLOQ”. Moreover, the “Chemical Stability PBS % T0” value in [4] (Table 2B) is given as 103%. The “Chemical Stability SGF, no enzyme % T0” value in series [6] (Table 2B) was 102%.

Consider `[2H]C([2H])([2H])N1CC(=O)O[C@H](C)CCCCCCCCCC(=O)NC1=N` [Compound Q, (R)-5-imino-4,17-dimethyl-1-oxa-4,6-diazacycloheptadecane-2,7-dione Hydrochloride], for which the half-life in [3] (Table 2C, macrocycles) worked out at 0.167 h; in [5] (Table 2C, macrocycles), 0.0217 h. Besides, the “Prodrug concentration” value is “BLOQ” in series [9] (Study No. 2, 100 μM) and “BLOQ” in series [9] (Study No. 2, 500 μM).

For `[2H]C([2H])([2H])N1CC(=O)OC(C)(C)CCCCCCCCCC(=O)NC1=N` [Compound U, 5-imino-4-trideuteriomethyl-17,17-dimethyl-1-oxa-4,6-diazacycloheptadecane-2,7-dione], the half-life in [3] (Table 2C, macrocycles) is 1.2 h. In [9] (Study No. 3, 50 μM), the “Prodrug concentration” value was determined as 0.48 nmoles/mg protein and the “d3-Creatine concentration in the cell cytosol” value is “BLOQ”. Further, the half-life in [5] (Table 2C, macrocycles) was 1.17 h.
